Active and inactive are the calls of the source. No cut-off for these calls is given here.
Assays:
[1] = biological target: Cyclin-dependent kinase 2/cyclin A (Homo sapiens) (UniProt P24941+P20248+P78396); assay: Inhibition of CDK2/cyclin A at 10 uM by IMAP assay; format: protein-complex assay
[2] = test system: HL-60; assay: Antiproliferative activity against human HL60 cells after 5 days by MTT assay; format: functional, cell-based; conditions: HL-60, 120 h
[3] = test system: Huh-7; assay: Antiproliferative activity against human HuH7 cells after 72 hrs by MTT assay; format: functional, cell-based; conditions: Huh-7, 72 h
[4] = Antiproliferative activity against human IMR90 cells after 72 hrs by MTT assay; format: cell-based; conditions: IMR-90, 72 h
[5] = test system: K562; assay: cells; conditions: Homo sapiens, K562, 72 h
Description: Antiproliferative activity against human K562 cells after 72 hrs by MTT assay

[6] = test system: HCT-116; assay: cells; conditions: Homo sapiens, HCT-116, 72 h
Description: Antiproliferative activity against human HCT116 cells after 72 hrs by MTT assay

[7] = biological target: Dual specificity mitogen-activated protein kinase kinase 1 (Homo sapiens) (UniProt Q02750); assay: Inhibition of MEK1 at 10 uM
[8] = biological target: Dual specificity mitogen-activated protein kinase kinase 2 (Homo sapiens) (UniProt P36507); assay: Inhibition of MEK2 at 10 uM
[9] = biological target: Hepatocyte growth factor receptor (Homo sapiens) (UniProt P08581); assay: Inhibition of MET at 10 uM
[10] = biological target: Mitogen-activated protein kinase 14 (Homo sapiens) (UniProt Q16539); assay: Inhibition of p38alpha at 10 uM
[11] = biological target: Mitogen-activated protein kinase 11 (Homo sapiens) (UniProt Q15759); assay: Inhibition of p38beta at 10 uM
[12] = biological target: Platelet-derived growth factor receptor alpha (Homo sapiens) (UniProt P16234); assay: Inhibition of PDGFRA at 10 uM
[13] = biological target: Platelet-derived growth factor receptor beta (Homo sapiens) (UniProt P09619); assay: Inhibition of PDGFRB at 10 uM
[14] = biological target: Phosphatidylinositol 4,5-bisphosphate 3-kinase catalytic subunit gamma isoform (Homo sapiens) (UniProt P48736); assay: Inhibition of PIK3CG at 10 uM
[15] = biological target: Serine/threonine-protein kinase pim-1 (Homo sapiens) (UniProt P11309); assay: Inhibition of PIM1 at 10 uM
[16] = biological target: Serine/threonine-protein kinase pim-2 (Homo sapiens) (UniProt Q9P1W9); assay: Inhibition of PIM2 at 10 uM
[17] = biological target: Serine/threonine-protein kinase pim-3 (Homo sapiens) (UniProt Q86V86); assay: Inhibition of PIM3 at 10 uM
[18] = biological target: Serine/threonine-protein kinase PLK4 (Homo sapiens) (UniProt O00444); assay: Inhibition of PLK4 at 10 uM
[19] = biological target: RAF proto-oncogene serine/threonine-protein kinase (Homo sapiens) (UniProt P04049); assay: Inhibition of RAF1 at 10 uM
[20] = biological target: Proto-oncogene tyrosine-protein kinase Src (Homo sapiens) (UniProt P12931); assay: Inhibition of SRC at 10 uM
[21] = biological target: SRSF protein kinase 3 (Homo sapiens) (UniProt Q9UPE1); assay: Inhibition of SRPK3 at 10 uM
[22] = biological target: TGF-beta receptor type-1 (Homo sapiens) (UniProt P36897); assay: Inhibition of TGFBR1 at 10 uM
[23] = biological target: Angiopoietin-1 receptor (Homo sapiens) (UniProt Q02763); assay: Inhibition of TIE2 at 10 uM
[24] = biological target: Non-receptor tyrosine-protein kinase TYK2 (Homo sapiens) (UniProt P29597); assay: Inhibition of TYK2 at 10 uM
[25] = biological target: Tyrosine-protein kinase ABL1 (Homo sapiens) (UniProt P00519); assay: Inhibition of ABL1 at 10 uM
[26] = biological target: Atypical kinase COQ8A, mitochondrial (Homo sapiens) (UniProt Q8NI60); assay: Inhibition of ADCK3 at 10 uM
[27] = biological target: ALK tyrosine kinase receptor (Homo sapiens) (UniProt Q9UM73); assay: Inhibition of ALK at 10 uM
[28] = biological target: Serine/threonine-protein kinase B-raf (Homo sapiens) (UniProt P15056); assay: Inhibition of BRAF at 10 uM
[29] = biological target: Tyrosine-protein kinase BTK (Homo sapiens) (UniProt Q06187); assay: Inhibition of BTK at 10 uM
[30] = biological target: Cyclin-dependent kinase 2 (Homo sapiens) (UniProt P24941); assay: Inhibition of CDK2 at 10 uM
[31] = biological target: Cyclin-dependent kinase 3 (Homo sapiens) (UniProt Q00526); assay: Inhibition of CDK3 at 10 uM
[32] = biological target: Cyclin-dependent kinase 7 (Homo sapiens) (UniProt P50613); assay: Inhibition of CDK7 at 10 uM
[33] = biological target: Cyclin-dependent kinase 9 (Homo sapiens) (UniProt P50750); assay: Inhibition of CDK9 at 10 uM
[34] = biological target: Serine/threonine-protein kinase Chk1 (Homo sapiens) (UniProt O14757); assay: Inhibition of CHEK1 at 10 uM
[35] = biological target: Macrophage colony-stimulating factor 1 receptor (Homo sapiens) (UniProt P07333); assay: Inhibition of CSF1R at 10 uM
[36] = biological target: Casein kinase I isoform gamma-2 (Homo sapiens) (UniProt P78368); assay: Inhibition of CSNK1G2 at 10 uM
[37] = biological target: Dual specificity tyrosine-phosphorylation-regulated kinase 1B (Homo sapiens) (UniProt Q9Y463); assay: Inhibition of DYRK1B at 10 uM
[38] = biological target: Epidermal growth factor receptor (Homo sapiens) (UniProt P00533); assay: Inhibition of EGFR at 10 uM
[39] = biological target: Receptor tyrosine-protein kinase erbB-2 (Homo sapiens) (UniProt P04626); assay: Inhibition of ERBB2 at 10 uM
[40] = biological target: Receptor tyrosine-protein kinase erbB-4 (Homo sapiens) (UniProt Q15303); assay: Inhibition of ERBB4 at 10 uM
[41] = biological target: Mitogen-activated protein kinase 3 (Homo sapiens) (UniProt P27361); assay: Inhibition of ERK1 at 10 uM
[42] = biological target: Fibroblast growth factor receptor 2 (Homo sapiens) (UniProt P21802); assay: Inhibition of FGFR2 at 10 uM
[43] = biological target: Fibroblast growth factor receptor 3 (Homo sapiens) (UniProt P22607); assay: Inhibition of FGFR3 at 10 uM
[44] = biological target: Insulin-like growth factor 1 receptor (Homo sapiens) (UniProt P08069); assay: Inhibition of IGF1R at 10 uM
[45] = biological target: Insulin receptor (Homo sapiens) (UniProt P06213); assay: Inhibition of INSR at 10 uM
[46] = biological target: Tyrosine-protein kinase JAK2 (Homo sapiens) (UniProt O60674); assay: Inhibition of JAK2 at 10 uM
[47] = biological target: Mast/stem cell growth factor receptor Kit (Homo sapiens) (UniProt P10721); assay: Inhibition of KIT at 10 uM
[48] = biological target: Receptor-type tyrosine-protein kinase FLT3 (Homo sapiens) (UniProt P36888); assay: Inhibition of FLT3 at 10 uM
[49] = biological target: Glycogen synthase kinase-3 beta (Homo sapiens) (UniProt P49841); assay: Inhibition of GSK3-beta at 10 uM
[50] = biological target: cAMP-dependent protein kinase catalytic subunit alpha (Homo sapiens) (UniProt P17612); assay: Inhibition of PKACalpha at 10 uM

Mitogen-activated protein kinase 11 (Homo sapiens), sequence (Q15759 whole entry): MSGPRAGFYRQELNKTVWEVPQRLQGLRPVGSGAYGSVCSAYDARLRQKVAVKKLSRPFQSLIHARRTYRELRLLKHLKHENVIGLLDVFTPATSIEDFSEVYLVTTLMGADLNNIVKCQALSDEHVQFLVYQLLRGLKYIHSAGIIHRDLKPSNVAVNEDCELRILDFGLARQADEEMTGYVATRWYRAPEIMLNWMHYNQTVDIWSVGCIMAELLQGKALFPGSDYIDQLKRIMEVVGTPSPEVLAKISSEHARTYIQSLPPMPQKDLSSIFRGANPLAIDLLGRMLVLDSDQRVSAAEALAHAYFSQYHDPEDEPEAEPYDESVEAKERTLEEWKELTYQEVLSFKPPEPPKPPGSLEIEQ
Tyrosine-protein kinase JAK2 (Homo sapiens), sequence (O60674 whole entry): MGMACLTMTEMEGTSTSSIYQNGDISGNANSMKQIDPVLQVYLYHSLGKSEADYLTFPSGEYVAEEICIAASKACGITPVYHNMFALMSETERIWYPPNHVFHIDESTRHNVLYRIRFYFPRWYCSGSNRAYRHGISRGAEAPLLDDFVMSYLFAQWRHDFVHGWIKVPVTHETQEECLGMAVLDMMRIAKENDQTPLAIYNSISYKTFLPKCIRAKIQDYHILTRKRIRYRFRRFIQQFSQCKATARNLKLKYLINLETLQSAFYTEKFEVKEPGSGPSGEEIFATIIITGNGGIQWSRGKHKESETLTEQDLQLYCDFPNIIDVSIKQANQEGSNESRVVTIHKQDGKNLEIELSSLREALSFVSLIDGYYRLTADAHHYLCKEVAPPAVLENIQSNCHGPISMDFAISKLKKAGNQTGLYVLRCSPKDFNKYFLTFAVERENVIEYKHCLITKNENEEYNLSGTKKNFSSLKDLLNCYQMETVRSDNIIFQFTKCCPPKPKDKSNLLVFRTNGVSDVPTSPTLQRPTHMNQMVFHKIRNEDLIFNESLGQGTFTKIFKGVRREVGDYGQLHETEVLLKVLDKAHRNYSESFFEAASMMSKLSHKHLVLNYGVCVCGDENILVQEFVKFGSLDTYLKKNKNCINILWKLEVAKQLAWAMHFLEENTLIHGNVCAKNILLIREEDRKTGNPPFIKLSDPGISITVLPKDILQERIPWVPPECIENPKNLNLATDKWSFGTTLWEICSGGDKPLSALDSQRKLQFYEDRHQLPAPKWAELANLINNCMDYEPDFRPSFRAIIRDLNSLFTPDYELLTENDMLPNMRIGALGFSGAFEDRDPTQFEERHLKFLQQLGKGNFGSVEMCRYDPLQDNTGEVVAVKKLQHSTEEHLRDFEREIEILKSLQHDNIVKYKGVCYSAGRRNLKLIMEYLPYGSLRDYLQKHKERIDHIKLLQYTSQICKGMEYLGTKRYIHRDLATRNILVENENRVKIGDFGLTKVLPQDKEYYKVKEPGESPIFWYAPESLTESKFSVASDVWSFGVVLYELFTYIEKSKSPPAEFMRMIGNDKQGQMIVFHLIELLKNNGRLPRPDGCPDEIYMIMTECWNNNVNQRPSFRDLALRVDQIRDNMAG
Angiopoietin-1 receptor (Homo sapiens), sequence (Q02763 whole entry): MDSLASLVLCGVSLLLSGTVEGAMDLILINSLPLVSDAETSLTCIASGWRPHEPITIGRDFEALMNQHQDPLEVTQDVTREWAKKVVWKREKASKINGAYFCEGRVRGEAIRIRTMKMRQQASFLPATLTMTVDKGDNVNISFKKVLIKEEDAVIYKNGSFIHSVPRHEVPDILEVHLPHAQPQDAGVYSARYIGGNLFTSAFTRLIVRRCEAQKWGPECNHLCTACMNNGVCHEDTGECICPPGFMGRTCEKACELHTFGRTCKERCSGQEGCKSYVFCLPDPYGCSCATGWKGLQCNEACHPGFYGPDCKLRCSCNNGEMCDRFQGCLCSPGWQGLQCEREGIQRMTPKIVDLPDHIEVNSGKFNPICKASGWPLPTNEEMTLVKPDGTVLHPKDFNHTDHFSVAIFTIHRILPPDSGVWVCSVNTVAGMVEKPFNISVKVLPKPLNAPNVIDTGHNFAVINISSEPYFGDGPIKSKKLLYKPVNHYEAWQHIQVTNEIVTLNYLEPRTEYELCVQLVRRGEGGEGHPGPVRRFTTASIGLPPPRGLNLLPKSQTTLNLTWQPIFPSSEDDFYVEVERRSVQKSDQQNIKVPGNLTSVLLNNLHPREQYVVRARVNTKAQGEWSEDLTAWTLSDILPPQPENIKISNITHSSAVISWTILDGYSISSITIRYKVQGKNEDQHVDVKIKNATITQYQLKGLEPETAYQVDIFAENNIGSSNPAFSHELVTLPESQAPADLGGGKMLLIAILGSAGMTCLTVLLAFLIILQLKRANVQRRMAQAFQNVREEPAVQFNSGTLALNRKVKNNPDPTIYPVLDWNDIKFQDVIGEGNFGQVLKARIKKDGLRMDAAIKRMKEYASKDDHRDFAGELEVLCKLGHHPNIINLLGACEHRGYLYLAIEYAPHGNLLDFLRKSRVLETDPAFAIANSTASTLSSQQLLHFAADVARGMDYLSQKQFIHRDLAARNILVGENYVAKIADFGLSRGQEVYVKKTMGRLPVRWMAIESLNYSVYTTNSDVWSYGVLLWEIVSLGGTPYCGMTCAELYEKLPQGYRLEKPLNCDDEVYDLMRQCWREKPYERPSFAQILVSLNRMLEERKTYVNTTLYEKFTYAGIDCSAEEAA
Cyclin-dependent kinase 3 (Homo sapiens), sequence (Q00526 whole entry, looked up): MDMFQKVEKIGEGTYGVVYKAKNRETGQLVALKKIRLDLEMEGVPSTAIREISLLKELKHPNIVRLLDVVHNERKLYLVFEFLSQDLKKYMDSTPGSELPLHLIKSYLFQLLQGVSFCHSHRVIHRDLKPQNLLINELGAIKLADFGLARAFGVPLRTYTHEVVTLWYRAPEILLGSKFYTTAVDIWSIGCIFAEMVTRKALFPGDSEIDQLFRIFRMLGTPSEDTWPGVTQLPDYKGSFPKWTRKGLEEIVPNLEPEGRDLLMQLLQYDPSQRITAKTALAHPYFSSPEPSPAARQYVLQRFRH
Dual specificity mitogen-activated protein kinase kinase 2 (Homo sapiens), sequence (P36507 whole entry): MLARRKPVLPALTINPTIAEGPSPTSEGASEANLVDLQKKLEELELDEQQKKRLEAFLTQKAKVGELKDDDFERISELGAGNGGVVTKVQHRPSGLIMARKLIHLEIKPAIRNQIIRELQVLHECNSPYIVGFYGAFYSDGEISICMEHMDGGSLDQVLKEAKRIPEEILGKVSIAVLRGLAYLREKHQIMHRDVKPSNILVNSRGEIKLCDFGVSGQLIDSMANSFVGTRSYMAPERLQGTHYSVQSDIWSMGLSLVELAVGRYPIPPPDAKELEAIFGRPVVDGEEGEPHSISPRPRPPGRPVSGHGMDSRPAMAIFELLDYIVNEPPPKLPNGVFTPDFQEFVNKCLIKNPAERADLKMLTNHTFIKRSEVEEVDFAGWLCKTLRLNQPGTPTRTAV
Tyrosine-protein kinase BTK (Homo sapiens), sequence (Q06187 whole entry): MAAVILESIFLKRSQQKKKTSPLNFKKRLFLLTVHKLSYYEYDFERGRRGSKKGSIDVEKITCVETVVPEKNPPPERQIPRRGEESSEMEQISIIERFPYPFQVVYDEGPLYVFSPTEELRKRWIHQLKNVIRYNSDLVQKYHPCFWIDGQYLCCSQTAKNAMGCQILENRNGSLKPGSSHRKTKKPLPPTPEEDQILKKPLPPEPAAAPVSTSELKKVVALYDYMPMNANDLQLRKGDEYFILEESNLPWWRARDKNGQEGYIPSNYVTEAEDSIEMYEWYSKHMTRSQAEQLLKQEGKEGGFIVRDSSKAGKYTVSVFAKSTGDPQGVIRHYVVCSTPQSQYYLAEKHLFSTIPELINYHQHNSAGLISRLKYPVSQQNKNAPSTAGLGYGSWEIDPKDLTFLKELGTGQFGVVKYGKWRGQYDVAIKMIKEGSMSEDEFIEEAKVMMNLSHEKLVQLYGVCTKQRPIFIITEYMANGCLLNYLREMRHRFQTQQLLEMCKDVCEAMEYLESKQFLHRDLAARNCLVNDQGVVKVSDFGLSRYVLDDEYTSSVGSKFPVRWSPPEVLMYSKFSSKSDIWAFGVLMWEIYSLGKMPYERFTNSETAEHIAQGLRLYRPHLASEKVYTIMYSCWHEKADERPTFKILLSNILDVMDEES
TGF-beta receptor type-1 (Homo sapiens), sequence (P36897 whole entry): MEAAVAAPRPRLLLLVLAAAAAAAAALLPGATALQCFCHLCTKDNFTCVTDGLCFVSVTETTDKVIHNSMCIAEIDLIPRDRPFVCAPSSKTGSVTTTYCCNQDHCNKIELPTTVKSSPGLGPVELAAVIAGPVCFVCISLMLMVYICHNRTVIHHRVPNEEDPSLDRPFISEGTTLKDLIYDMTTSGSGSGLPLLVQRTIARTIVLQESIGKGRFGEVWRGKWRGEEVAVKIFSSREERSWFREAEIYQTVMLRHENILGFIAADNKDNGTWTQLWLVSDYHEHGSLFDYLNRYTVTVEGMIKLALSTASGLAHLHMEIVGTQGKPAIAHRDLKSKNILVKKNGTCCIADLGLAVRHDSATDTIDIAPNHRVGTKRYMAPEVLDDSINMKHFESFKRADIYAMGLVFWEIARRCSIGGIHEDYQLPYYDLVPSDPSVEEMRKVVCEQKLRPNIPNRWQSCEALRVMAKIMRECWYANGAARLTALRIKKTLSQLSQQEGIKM
Cyclin-dependent kinase 9 (Homo sapiens), sequence (P50750 whole entry): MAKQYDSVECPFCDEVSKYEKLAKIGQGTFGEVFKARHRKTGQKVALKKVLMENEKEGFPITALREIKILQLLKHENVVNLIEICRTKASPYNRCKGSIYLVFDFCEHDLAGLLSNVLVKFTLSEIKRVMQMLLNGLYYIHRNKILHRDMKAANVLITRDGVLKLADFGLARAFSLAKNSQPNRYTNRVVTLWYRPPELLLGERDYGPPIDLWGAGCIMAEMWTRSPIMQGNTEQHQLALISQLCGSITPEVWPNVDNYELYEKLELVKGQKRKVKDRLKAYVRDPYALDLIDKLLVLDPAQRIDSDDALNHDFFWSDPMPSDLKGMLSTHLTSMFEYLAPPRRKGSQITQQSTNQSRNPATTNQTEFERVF

SMILES: Cc1ccc(CCN2C(=O)/C(=C3/C(=O)Nc4ccccc43)c3ccccc32)cc1
- inhibition [1]: inactive
- IC50 [2]: > 30 µM
- IC50 [3]: 19 µM
- IC50 [4]: > 30 µM
- IC50 [5]: > 30 µM
- IC50 [6]: > 30 µM

SMILES: CN1C(=O)/C(=C2/C(=O)Nc3ccccc32)c2ccccc21 [MEISOINDIGO]
- inhibition [7]: 16%
- inhibition [8]: 0%
- inhibition [9]: 0%
- inhibition [10]: 0%
- inhibition [11]: 0%
- inhibition [12]: 0%
- inhibition [13]: 15%
- inhibition [14]: 0%
- inhibition [15]: 3%
- inhibition [16]: 2%
- inhibition [17]: 7%
- inhibition [18]: 12%
- inhibition [19]: 0%
- inhibition [20]: 15%
- inhibition [21]: 0%
- inhibition [22]: 0%
- inhibition [23]: 6%
- inhibition [24]: 8%
- inhibition [1]: inactive
- IC50 [2]: 12.2 µM
- IC50 [3]: 18.3 µM
- IC50 [4]: 7.7 µM
- inhibition [25]: 11%
- inhibition [26]: 0%
- inhibition [27]: 0%
- inhibition [28]: 0%
- inhibition [29]: 0%
- inhibition [30]: 4%
- inhibition [31]: 0%
- inhibition [32]: 56%
- inhibition [33]: 0%
- inhibition [34]: 0%
- inhibition [35]: 0%
- inhibition [36]: 0%
- inhibition [37]: 0%
- inhibition [38]: 16%
- inhibition [39]: 0%
- inhibition [40]: 0%
- inhibition [41]: 0%
- inhibition [42]: 0%
- inhibition [43]: 4%
- inhibition [44]: 13%
- inhibition [45]: 10%
- inhibition [46]: 4%
- inhibition [47]: 8%
- inhibition [48]: 0%
- inhibition [49]: 16%
- IC50 [5]: 6.7 µM
- IC50 [6]: 15.4 µM
- inhibition [50]: 0%

SMILES: CN1C(=O)/C(=C2/C(=O)N(C)c3ccccc32)c2ccccc21
- inhibition [1]: inactive

SMILES: O=C1Nc2ccccc2/C1=C1\C(=O)Nc2ccccc21 [ISOINDIGO]
- inhibition [1]: inactive
- IC50 [2]: 16.6 µM
- IC50 [3]: 28.9 µM
- IC50 [4]: 16.3 µM
- IC50 [5]: 6.7 µM
- IC50 [6]: > 30 µM

SMILES: O=C1Nc2ccccc2/C1=C1\C(=O)N(CCc2ccc([N+](=O)[O-])cc2)c2ccccc21
- inhibition [1]: inactive
- IC50 [2]: > 30 µM
- IC50 [3]: 13.3 µM
- IC50 [4]: 7.5 µM
- IC50 [5]: > 30 µM
- IC50 [6]: > 30 µM

SMILES: O=C1Nc2ccccc2C1C1C(=O)Nc2ccccc21 (configuration not stated)
- inhibition [1]: inactive

SMILES: O=C1Nc2ccccc2/C1=C1\C(=O)N(CCCc2ccccc2)c2ccccc21
- inhibition [7]: 0%
- inhibition [8]: 9%
- inhibition [9]: 0%
- inhibition [10]: 4%
- inhibition [11]: 32%
- inhibition [12]: 0%
- inhibition [13]: 49%
- inhibition [14]: 19%
- inhibition [15]: 0%
- inhibition [16]: 23%
- inhibition [17]: 0%
- inhibition [18]: 39%
- inhibition [19]: 9%
- inhibition [20]: 15%
- inhibition [21]: 7%
- inhibition [22]: 0%
- inhibition [23]: 0%
- inhibition [24]: 0%
- inhibition [1]: inactive
- inhibition [25]: 46%
- inhibition [26]: 45%
- inhibition [27]: 0%
- inhibition [28]: 0%
- inhibition [29]: 13%
- inhibition [30]: 0%
- inhibition [31]: 0%
- inhibition [32]: 28%
- inhibition [33]: 0%
- inhibition [34]: 35%
- inhibition [35]: 11%
- inhibition [36]: 0%
- inhibition [37]: 0%
- inhibition [38]: 0%
- inhibition [39]: 3%
- inhibition [40]: 16%
- inhibition [41]: 18%
- inhibition [42]: 42%
- inhibition [43]: 32%
- inhibition [44]: 20%
- inhibition [45]: 0%
- inhibition [46]: 25%
- inhibition [47]: 49%
- inhibition [48]: 0%
- inhibition [49]: 5%
- inhibition [50]: 12%

SMILES: O=C1Nc2ccccc2/C1=C1\C(=O)N(CCc2ccc(O)cc2)c2ccccc21
- inhibition [1]: inactive
- IC50 [2]: > 30 µM
- IC50 [3]: 19.9 µM
- IC50 [4]: > 30 µM
- IC50 [5]: > 30 µM
- IC50 [6]: > 30 µM

SMILES: O=C1Nc2cc(Br)ccc2/C1=C1/Nc2ccccc2/C1=N\O
- inhibition [1]: 70%

SMILES: COc1ccc(CCN2C(=O)/C(=C3/C(=O)Nc4ccccc43)c3ccccc32)cc1
- inhibition [1]: inactive
- IC50 [2]: 12 µM
- IC50 [3]: 7.5 µM
- IC50 [4]: 5.4 µM
- IC50 [5]: 1.4 µM
- IC50 [6]: 11.6 µM

SMILES: O=C1Nc2ccccc2/C1=C1\C(=O)N(CCc2ccccc2)c2ccccc21
- inhibition [1]: inactive
- IC50 [2]: 11.9 µM
- IC50 [3]: 12 µM
- IC50 [4]: 6.8 µM
- IC50 [5]: 7.3 µM
- IC50 [6]: 12.2 µM

SMILES: O=C1Nc2ccccc2/C1=C1\C(=O)N(Cc2ccccc2)c2ccccc21
- inhibition [1]: inactive

SMILES: O=C1Nc2ccccc2/C1=C1\C(=O)N(c2ccccc2)c2ccccc21
- inhibition [1]: inactive

SMILES: O=Nc1c(-c2c(O)[nH]c3ccccc23)[nH]c2ccccc12 [INDIRUBIN-3-MONOXIME]
- inhibition [1]: 70%
- IC50 [2]: 15.7 µM
- IC50 [4]: 18.2 µM
- IC50 [5]: > 30 µM
- IC50 [6]: 12 µM

SMILES: CC(=O)Nc1ccc(CCN2C(=O)/C(=C3/C(=O)Nc4ccccc43)c3ccccc32)cc1
- inhibition [1]: inactive
- IC50 [2]: > 30 µM
- IC50 [3]: 13.3 µM
- IC50 [4]: 19.5 µM
- IC50 [5]: > 30 µM
- IC50 [6]: > 30 µM

Source: ChEMBL document CHEMBL1152632, “Synthesis and evaluation of functionalized isoindigos as antiproliferative agents” (Bioorg Med Chem, 2009)
